Here are results for one compound from publication doi:10.1101/2021.01.21.427566v1, “Gradual opening of Smc arms in prokaryotic condensin” (biorxiv, 2021).

The target of experiment [1] is T1, Bsu Smc (Smc dimer without ScpAB) (Bacillus subtilis, UniProt P51834).
T1 construct: full-length native (untagged) Smc, expressed in E. coli BL21-Gold (DE3) from pET-22/pET-28; homodimer
T1 sequence (P51834 1-1186): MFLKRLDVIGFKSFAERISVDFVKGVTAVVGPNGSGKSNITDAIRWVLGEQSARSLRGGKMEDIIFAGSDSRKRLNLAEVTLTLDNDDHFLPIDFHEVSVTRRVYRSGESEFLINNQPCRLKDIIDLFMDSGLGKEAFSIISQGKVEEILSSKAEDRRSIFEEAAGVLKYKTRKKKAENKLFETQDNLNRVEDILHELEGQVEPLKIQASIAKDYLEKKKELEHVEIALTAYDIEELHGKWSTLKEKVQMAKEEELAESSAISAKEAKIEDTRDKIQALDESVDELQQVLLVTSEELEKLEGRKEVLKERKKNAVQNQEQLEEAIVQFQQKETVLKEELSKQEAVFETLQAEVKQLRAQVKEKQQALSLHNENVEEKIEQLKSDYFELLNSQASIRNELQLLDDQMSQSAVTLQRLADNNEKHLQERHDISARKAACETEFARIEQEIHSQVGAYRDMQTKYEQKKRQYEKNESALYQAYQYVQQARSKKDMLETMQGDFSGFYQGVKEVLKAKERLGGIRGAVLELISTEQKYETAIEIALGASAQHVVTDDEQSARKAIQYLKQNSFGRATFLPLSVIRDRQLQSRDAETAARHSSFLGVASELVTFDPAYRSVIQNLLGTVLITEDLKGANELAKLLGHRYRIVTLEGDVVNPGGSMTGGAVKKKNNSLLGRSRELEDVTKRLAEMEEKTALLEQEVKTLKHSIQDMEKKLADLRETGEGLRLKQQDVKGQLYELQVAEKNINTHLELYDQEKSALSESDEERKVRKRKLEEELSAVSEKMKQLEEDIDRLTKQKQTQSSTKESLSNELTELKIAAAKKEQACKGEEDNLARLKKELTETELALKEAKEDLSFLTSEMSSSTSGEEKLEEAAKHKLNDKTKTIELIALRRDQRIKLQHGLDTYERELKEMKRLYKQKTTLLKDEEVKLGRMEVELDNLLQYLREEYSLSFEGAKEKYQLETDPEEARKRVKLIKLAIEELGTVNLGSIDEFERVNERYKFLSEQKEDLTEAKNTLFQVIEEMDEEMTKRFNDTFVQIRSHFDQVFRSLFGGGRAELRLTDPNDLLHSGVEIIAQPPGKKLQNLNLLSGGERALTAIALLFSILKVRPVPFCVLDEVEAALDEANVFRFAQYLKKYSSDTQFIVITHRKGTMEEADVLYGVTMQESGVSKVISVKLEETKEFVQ
Nature of the experiment: coupled ATPase assay, ATP titration. The experiment is classed as biochemical. The settings on record: wild-type Smc, no DNA, pH 7.5, 2 mM MgCl2, 25 °C.

A further experiment addresses T2, Smc-ScpAB holo-complex (Bacillus subtilis, UniProt P51834).
T2 construct: full-length native (untagged) Smc, ScpA and ScpB purified separately from E. coli and mixed stoichiometrically; with Segregation and condensation protein A; Segregation and condensation protein B
T2 sequence (P51834 1-1186): T1 sequence (P51834 1-1186)
T2 sequence (P35154 1-251 partner): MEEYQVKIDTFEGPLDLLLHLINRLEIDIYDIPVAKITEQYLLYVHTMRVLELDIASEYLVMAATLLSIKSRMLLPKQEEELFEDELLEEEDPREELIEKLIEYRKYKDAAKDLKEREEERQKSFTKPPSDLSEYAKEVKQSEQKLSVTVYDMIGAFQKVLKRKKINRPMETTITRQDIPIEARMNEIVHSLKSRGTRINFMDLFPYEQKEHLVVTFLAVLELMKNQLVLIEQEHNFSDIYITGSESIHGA
T2 sequence (P35155 1-197 partner): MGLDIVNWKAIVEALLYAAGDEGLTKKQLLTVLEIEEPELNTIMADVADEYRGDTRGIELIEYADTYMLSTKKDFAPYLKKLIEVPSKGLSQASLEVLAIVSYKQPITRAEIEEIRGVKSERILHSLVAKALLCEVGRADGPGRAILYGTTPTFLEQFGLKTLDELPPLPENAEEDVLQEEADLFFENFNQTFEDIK
Put plainly: coupled ATPase assay, ATP titration. The experiment is classed as biochemical. The settings on record: wild-type Smc with ScpAB, pH 7.5, 2 mM MgCl2, 25 °C.

The structures appear in SMILES notation.

Consider `Nc1ncnc2c1ncn2[C@@H]1O[C@H](COP(=O)(O)OP(=O)(O)OP(=O)(O)O)[C@@H](O)[C@H]1O` [ATP], for which the “coupled ATPase assay, ATP titration” value was “Measurement of ATP hydrolysis rates for Smc protein (wt), Smc(G302W) and Smc(G302E)” in experiment [1]; “increasing concentrations of ATP and in the absence or presence of dsDNA40 and ScpAB” on Smc-ScpAB holo-complex.
